Tested on: M17_3TAU(P301L) cells
Assay: TAU-induced cytotoxicity (LDH) in the neuroblastoma tauopathy model
Format: cell-based
Conditions: Homo sapiens, 168 h, inhibition of TAU-induced toxicity, 7 days retinoic acid differentiation, LDH readout
Procedure, shortened: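 Stably transfected BE-M17 cells expressing human TAU-P301L, seeded in serum-free detection medium, then differentiated with 2.5 μM RA (added in equal volume) for 7 days at 37° C/5% CO2 to induce TAU aggregation. Cytotoxicity = supernatant LDH increase over total LDH; EC50 from dose-dependent inhibition curves.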

First: O=C(Cc1ccnc(Cl)c1)N1CC2(CN(Cc3ccc(F)cc3)C2)C1 [Cpd B442]
Second: COc1cccc(CC(=O)N2CC3(CN(Cc4ccc(F)cc4)C3)C2)c1 [Cpd B425]
The EC50 of the first is 4.3-fold lower: 200 nM for the first, 854 nM for the second.

`O=C(OCC1CCC(F)(F)CC1)N1CC2(CN(Cc3ccccc3C(F)(F)F)C2)C1` [Cpd B165] and `O=C(OCC1CCC(F)(F)CC1)N1CC2(CN(Cc3ccc(F)cc3)C2)C1` [Cpd B132] are within 1.5-fold of each other in EC50: 2.49 nM for the first, 3.16 nM for the second.

`Cc1cccnc1CN1CC2(C1)CN(C(=O)Cc1ccccc1F)C2` [Cpd B436] and `Cc1ccccc1CC(=O)N1CC2(CN(Cc3ccc(F)cc3)C2)C1` [Cpd B439] are within 1.5-fold of each other in EC50: 389 nM for the first, 295 nM for the second.

First: O=C(COc1ccc(F)cc1)N1CC2(CN(Cc3ccc(F)cc3)C2)C1 [Cpd B098]
Second: Cc1ccc(CN2CC3(C2)CN(C(=O)Cc2ccc(F)cc2)C3)cc1 [Cpd B009, 2-(4-Fluoro-phenyl)-1-[6-(4-methyl-benzyl)-2,6-diaza-spiro[3.3]hept-2-yl]-ethanone]
The EC50 of the first is 67-fold higher: 71.5 nM for the first, 1.06 nM for the second.

`Cc1cccnc1CN1CC2(C1)CN(C(=O)c1cccc3cc[nH]c13)C2` [Cpd B086] and `Cc1ccccc1CC(=O)N1CC2(CN(Cc3ccccc3C)C2)C1` [Cpd B434] are within 1.5-fold of each other in EC50: 437 nM for the first, 396 nM for the second.

Going from `Cc1c(Cl)c(CN2CC3(C2)CN(C(=O)CC2CCC(F)(F)CC2)C3)nn1C` [Cpd B121] to `Cc1nc(CN2CC3(C2)CN(C(=O)CC2CCC(F)(F)CC2)C3)sc1C` [Cpd B451], the EC50 rises from 12.5 nM to 106 nM (8.5-fold). The first is the more potent here.

Compared with `N#Cc1ccc(CC(=O)N2CC3(CN(Cc4ccc(F)cc4)C3)C2)cc1` [Cpd B092], `O=C(Cc1ccc(Cl)cc1)N1CC2(CN(Cc3ccc(Cl)cc3)C2)C1` [Cpd B004, 1-(6-(4-chlorobenzyl)-2,6-diazaspiro[3.3]heptan-2-yl)-2-(4-chlorophenyl)ethanone] is 4.9-fold lower in EC50: 13.9 nM for the first, 2.86 nM for the second. The second is the more potent here.

`Cc1cnc(CN2CC3(C2)CN(C(=O)CC2CCC(F)(F)CC2)C3)s1` [Cpd B116] and `Cc1nc(CN2CC3(C2)CN(C(=O)CC2CCC(F)(F)CC2)C3)co1` [Cpd B127] are within 1.5-fold of each other in EC50: 72.2 nM for the first, 67.6 nM for the second.

`O=C(NC1CC(F)(F)C1)N1CC2(CN(Cc3ccc(F)cc3)C2)C1` [Cpd B168] and `O=C(NCC1CCOCC1)N1CC2(CN(Cc3ccc(F)cc3)C2)C1` [Cpd B169] are within 1.5-fold of each other in EC50: 780 nM for the first, 881 nM for the second.

Compared with `O=C(Nc1cccc(Cl)c1)N1CC2(CN(Cc3ccc(F)cc3)C2)C1` [Cpd B466], `O=C(Cc1cccc(C(F)(F)F)c1)N1CC2(CN(Cc3ccc(F)cc3)C2)C1` [Cpd B091] is 4.1-fold lower in EC50: 18.6 nM for the first, 4.56 nM for the second. The second is the more potent here.

Compared with `Cc1nc(CN2CC3(C2)CN(C(=O)Nc2cccc(C(F)(F)F)c2)C3)cs1` [Cpd B176], `O=C(Cc1ccc(F)cc1)N1CC2(CN(CCc3cccc(C(F)(F)F)c3)C2)C1` [Cpd B023, 2-(4-Fluoro-phenyl)-1-{6-[2-(3-trifluoromethyl-phenyl)-ethyl]-2,6-diaza-spiro[3.3]hept-2-yl}-ethanone] is 3.9-fold lower in EC50: 73.4 nM for the first, 18.6 nM for the second.

`Clc1ccc(Cc2nsc(NC3CC4(CC(NCCc5cccc(Cl)c5)C4)C3)n2)cc1` (centres unmarked) [Cpd B332, N-(3-(4-chlorobenzyl)-1,2,4-thiadiazol-5-yl)-N′-(3-chlorophenethyl) spiro[3.3]heptane-2,6-diamine] and `Fc1ccccc1CNC1CC2(C1)CC(Nc1nc(Cc3ccc(Cl)cc3)ns1)C2` (centres unmarked) [Cpd B312, N-(3-(4-chlorobenzyl)-1,2,4-thiadiazol-5-yl)-N′-(2-fluorobenzyl) spiro[3.3]heptane-2,6-diamine] are within 1.5-fold of each other in EC50: 2 nM for the first, 2.2 nM for the second.

Compared with `COc1ccc(CNC2CC3(C2)CC(Nc2nc(Cc4ccc(Cl)cc4)ns2)C3)cc1OC` (centres unmarked) [Cpd B317, N-(3-(4-chlorobenzyl)-1,2,4-thiadiazol-5-yl)-N′-(3,4-dimethoxybenzyl) spiro[3.3]heptane-2,6-diamine], `COc1ccc(CNC2CC3(C2)CC(Nc2nc(Cc4ccc(Cl)cc4)ns2)C3)cc1` (centres unmarked) [Cpd B318, N-(3-(4-chlorobenzyl)-1,2,4-thiadiazol-5-yl)-N′-(4-methoxybenzyl) spiro[3.3]heptane-2,6-diamine] is 4.1-fold lower in EC50: 41 nM for the first, 10.1 nM for the second. The second is the more potent here.

Going from `O=C(Cc1ccc(Cl)cc1)N1CC2(CN(CCC3CCCCC3)C2)C1` [Cpd B057, 2-(4-chlorophenyl)-1-(6-(2-cyclohexylethyl)-2,6-diazaspiro[3.3]heptan-2-yl)ethanone] to `Cc1cc(CN2CC3(C2)CN(C(=O)Cc2ccc(Cl)cc2)C3)no1` [Cpd B041, 2-(4-chlorophenyl)-1-(6-((5-methylisoxazol-3-yl)methyl)-2,6-diazaspiro[3.3]heptan-2-yl)ethanone], the EC50 rises from 1.58 nM to 141 nM (89-fold). The first is the more potent here.

`CCn1cc(CN2CC3(C2)CN(C(=O)NCc2ccc(F)cc2)C3)cn1` [Cpd B410] and `Cc1c(CN2CC3(C2)CN(C(=O)NCc2ccc(F)cc2)C3)cnn1C` [Cpd B413] are within 1.5-fold of each other in EC50: 3320 nM for the first, 2770 nM for the second.

`O=C(CC1CCC(F)(F)CC1)N1CC2(CN(Cc3ccc(F)cc3F)C2)C1` [Cpd B105] and `COc1cccc(CN2CC3(C2)CN(C(=O)CC2CCC(F)(F)CC2)C3)c1` [Cpd B074] are within 1.5-fold of each other in EC50: 2.6 nM for the first, 3.61 nM for the second.

Going from `Cn1cnc(CN2CC3(C2)CN(C(=O)NCC2CCC(F)(F)CC2)C3)c1Cl` [Cpd B447] to `Cn1cc(Cl)c(CN2CC3(C2)CN(C(=O)OCC2CCC(F)(F)CC2)C3)n1` [Cpd B159], the EC50 falls from 148 nM to 2.29 nM (65-fold). The second is the more potent here.

First: COc1cccc(CN2CC3(C2)CN(S(=O)(=O)Cc2ccc(C(F)(F)F)cc2)C3)c1 [Cpd B224]
Second: O=S(=O)(Cc1ccc(C(F)(F)F)cc1)N1CC2(CN(Cc3ccc(F)cc3)C2)C1 [Cpd B216]
The EC50 of the first is 2.1-fold higher: 12.2 nM for the first, 5.69 nM for the second. The second is the more potent here.

Going from `O=C(OC1CCC(F)(F)CC1)N1CC2(CN(Cc3ccccc3OC(F)F)C2)C1` [Cpd B149] to `COc1cccc(CN2CC3(C2)CN(C(=O)OC2CCC(F)(F)CC2)C3)c1` [Cpd B135], the EC50 falls from 7.58 nM to under 0.19 nM.

`COc1ccccc1CNC1CC2(C1)CC(Nc1nc(Cc3ccc(Cl)cc3)ns1)C2` (centres unmarked) [Cpd B305, N-(3-(4-chlorobenzyl)-1,2,4-thiadiazol-5-yl)-N′-(2-methoxybenzyl) spiro[3.3]heptane-2,6-diamine] and `Fc1cc(F)cc(CNC2CC3(C2)CC(Nc2nc(Cc4ccc(Cl)cc4)ns2)C3)c1` (centres unmarked) [Cpd B329, N-(3-(4-chlorobenzyl)-1,2,4-thiadiazol-5-yl)-N′-(3,5-difluorobenzyl) spiro[3.3]heptane-2,6-diamine] are within 1.5-fold of each other in EC50: 2.2 nM for the first, 2.3 nM for the second.

Going from `O=C(NCC1CCC(F)(F)CC1)N1CC2(CN(Cc3c(F)cccc3C(F)(F)F)C2)C1` [Cpd B459] to `COc1cccc(CN2CC3(C2)CN(C(=O)NCC2CCCCC2)C3)c1` [Cpd B184], the EC50 falls from 64.8 nM to 5.12 nM (13-fold).

`Cc1cccc(CN2CC3(C2)CN(C(=O)Cc2ccc(Cl)cc2)C3)n1` [Cpd B038, 2-(4-chlorophenyl)-1-(6-((6-methylpyridin-2-yl)methyl)-2,6-diazaspiro[3.3]heptan-2-yl)ethanone] and `CC(Cc1ccccc1)N1CC2(CN(C(=O)Cc3ccc(Cl)cc3)C2)C1` (centres unmarked) [Cpd B054, 2-(4-chlorophenyl)-1-(6-(1-phenylpropan-2-yl)-2,6-diazaspiro[3.3]heptan-2-yl)ethanone] are within 1.5-fold of each other in EC50: 13.9 nM for the first, 19.2 nM for the second.

Going from `O=C(Cc1ccc(F)cc1)NC1CC2(CC(NCc3ccccc3)C2)C1` (centres unmarked) [Cpd B066, N-(6-(benzylamino)spiro[3.3]heptan-2-yl)-2-(4-fluorophenyl)acetamide] to `O=C(Cc1ccc(F)cc1)N1CC2(CN(Cc3ccccc3OC(F)(F)F)C2)C1` [Cpd B013, 2-(4-Fluoro-phenyl)-1-[6-(2-trifluoromethoxy-benzyl)-2,6-diaza-spiro[3.3]hept-2-yl]-ethanone], the EC50 falls from 130 nM to 6.27 nM (21-fold). The second is the more potent here.

With `Cc1csc(CN2CC3(C2)CN(C(=O)NCc2ccc(F)cc2)C3)c1` [Cpd B192] the EC50 was 141 nM.
